The source of these data is patent publication US20110053896A1, “OSMOLYTES FOR THE TREATMENT OF ALLERGIC OR VIRAL RESPIRATORY DISEASES” (priority 2007, published 2011).

Experiment [1] concerns ICAM-1 expression. Nature of the experiment: Reduction of ICAM-1 expression by DGP in UVA-irradiated ceratinozytes. Type of experiment: cell-based. The settings on record: Human ceratinozytes pretreated with DGP for 24 hours, UVA radiation. As to the method:
Human ceratinozytes were pretreated with DGP for 24 hours. After radiation using UVA rays (environment noxes) the quantity of ICAM-1 was measured.

Experiment [2] concerns Balb/c mice sensitized with ovalbumin (acute allergic asthma). The experiment can be described thus: Ovalbumin-sensitized mice, allergic asthma model, intranasal ectoine solution. In kind it is in vivo. The note with it: 50 μl intranasal, 14 treatments day 0 to 32, compared to 0.9% salt solution.
Procedure: Seven-months-old mice of the inbred strain Balb/c were sensitized by injecting them intraperitoneally with a mixture of ovalbumin and aluminum hydroxide contained in a total volume of 200 μl buffer (PBS). The injection was made twice, once on day 0 and once on day 14. The size of each group tested was n=8.
In order to subsequently induce the allergic reaction in the lungs of the mice, i.e. s to trigger the acute allergic asthma, the mice were treated inhalatively with an ovalbumin aerosol for 30 minutes each on days 28 and 38. For this purpose, the mice were placed in a plexiglass chamber, into which a misty 1% OVA solution was introduced through an inhaler.
For ectoine treatment, the animals were anesthetized with a mixture of ketamine and rompune. 50 μl of a sterile ectoine solution or 0.9% salt solution was applied in front of the nostrils with glass capillaries until the solution was completed inhaled. The treatments—14 in all—started on day 0. The last treatment was administered on day 32.
The end points of the study were defined as the bronchial hyperreactivity as measured with a plethysmograph, the b ronchoalveolar lavage (BAL) cellular composition and the release of OVA-specific igE and igG1 antibodies.
Experiment [3] deals with rats sensitized to ovalbumin (OVA), late allergic reaction. The experiment can be described thus: Ovalbumin-induced allergic asthma in rats, late allergic reaction (hyperreactivity, BAL). Type of experiment: in vivo. The note with it: 24 h after the ovalbumin challenge, acetyl-choline hyperreactivity and BAL cell counts, compared to negative control group.
Source text: (§1) The study population consisted of 4 treatment groups, a reference group, a sham-sensitized and vehicle-treated negative control group, and a vehicle-treated positive control group. The group size was n=16.
In the first phase of the study, all animals, except for the sham-sensitized group, were systemically sensitized to ovalbumin (OVA) plus adjuvants, the negative control group was given NaCl. On days 7 and 14, the animals were intratracheally boosted with OVA (to enhance the sensitizing effect). […] The two control groups were given only NaCl. After expiry of the waiting period, the animals were anesthetized, orotracheally intubated in a gentle manner and—after placement of an oesophagus catheter and allowing the mice to reach a steady state—their lung functions (including such parameters as tidal volume, breathing frequency, dynamic compliance and lung resistance) were measured body-plethysmographically prior to provocation. The data was collected and evaluated using a computer program (HEM, Notocord/France) specifically developed for these lung function tests.
The late allergic phase was tested 24 h after the ovalbumin challenge. First the animals were tested for airway hyperreactivity to unspecific stimuli. […] Using the lavage liquid, the total and the differential cell counts were determined including the number of esinophiles in the BAL.
For experiment [4], the system named is ICAM-1 expression. The experiment can be described thus: Inhibition of ICAM-1 expression by ectoine (RT-PCR, UVA radiation). In kind it is cell-based. The note with it: ceratinzytes pre-incubated for 24 h with 1 mM ectoine, UVA 30 J/cm^2, RT-PCR relative to β-actin. The method, then:
ICAM-1 expression was measured using differential reverse transcriptase-PCR (RT-PCR) and the Applied Biosystem Kit. To take account of the normal variations in the gene expression of skin cells, ICAM-1 expression is put into relationship to the constitutively formed house-keeping gene, β-actin. The semi-quantitive analysis of RT-PCR was performed by ion exchange chromatography using a UV spectrophotometer (A260). (A) Non-pretreated, radiated control sample (B) pre-incubated for 24 h with 1 mM RonaCare™ Ectoin and radiated with a single dose of 30 J/cm^2 or (C) pre-incubated for 24 h with 1 mM ectoine, non-irradiated. UVA radiation induces upregulation of ICAM-1 expression.

In experiment [5] the test system is rats sensitized to ovalbumin (OVA), early allergic reaction. The experiment can be described thus: Ovalbumin-induced allergic asthma in rats, early allergic reaction (lung function). The note with it: intratracheal pretreatment 48 h, 24 h and 2 h before ovalbumin challenge, in comparison to the negative control. In kind it is in vivo.
Source text: as §1
In the first phase of the study, all animals, except for the sham-sensitized group, were systemically sensitized to ovalbumin (OVA) plus adjuvants, the negative control group was given NaCl. On days 7 and 14, the animals were intratracheally boosted with OVA (to enhance the sensitizing effect). 48 h, 24 h and 2 h before the final inhalative allergen exposure was performed, three groups and a positive control group were subjected to an intratracheal pretreatment with the test substance, ectoine, at three dosage levels. […] After expiry of the waiting period, the animals were anesthetized, orotracheally intubated in a gentle manner and—after placement of an oesophagus catheter and allowing the mice to reach a steady state—their lung functions (including such parameters as tidal volume, breathing frequency, dynamic compliance and lung resistance) were measured body-plethysmographically prior to provocation. The data was collected and evaluated using a computer program (HEM, Notocord/France) specifically developed for these lung function tests.
The lung function parameters were continuously recorded during and after exposure in order to measure bronchospasm.

With `O=P(O)(OCC(O)CO)OCC(O)CO` (centres unmarked) [DGP, 1,1-diglycerol phosphate], in the experiment on ICAM-1 expression [1], the “inhibition of ICAM-1 expression” value was found to be 49%.

Consider `CC1=NCC[C@@H](C(=O)O)N1` [ectoine], for which the “effect on bronchial hyperreactivity, BAL cellular composition and release of OVA-specific igE and igG1 antibodies” value in experiment [2] was “significant positive effect”. Also, the “effect on the late allergic reaction” value in experiment [3] is recorded as “positive effect”. In addition, the “ICAM-1 induction caused by UVA radiation” value in the experiment on ICAM-1 expression [4] is given as “almost completely neutralize”. Moreover, the “effect on lung function parameters (early allergic reaction, bronchospasm)” value in experiment [5] is reported as “significant positive effect”.
